The source of these data is patent publication US6660755B2, “Substituted diaryl or diheteroaryl methans, ethers and amines having retinoid agonist, antagonist or inverse agonist type biological activity” (Allergan, Inc., priority 1997, dated 2003).

The target in test [1] is RARα (Homo sapiens, UniProt P10276, E106G/G107S/G110V). The experiment in a line: PGR assay (RAR-P-GR holoreceptor transactivation), RARα. In kind it is cell-based. The following applies: for Emax: 18 h; for EC50: PGR assay (transactivation), CV-1 cells, luciferase reporter. From the text:
(§1) A holoreceptor transactivation assay and a ligand binding assay which measure the antagonist/agonist like activity of the compounds of the invention, or their ability to bind to the several retinoid receptor subtypes, respectively, are described in published PCT Application No. WO WO93/11755 (particularly on pages 30-33 and 37-41) published on Jun. 24, 1993, the specification of which is also incorporated herein by reference. A detailed experimental procedure for holoreceptor transactivations has been described by Heyman et al. Cell 1992, 68, 397-406; Allegretto et al. J. Biol. Chem. 1993 268, 26625-26633, and Mangelsdorf et al. The Retinoids: Biology, Chemistry and Medicine, pp 319-349, Raven Press Ltd., New York, which are expressly incorporated herein by reference. The results obtained in this assay are expressed in EC50 numbers, as they are also in the chimeric receptor transactivation assay. The results of ligand binding assay are expressed in Kd numbers. (See Cheng et al. Biochemical Pharmacology 22, 3099-3108, expressly incorporated herein by reference.) Still another transactivation assay, the “PGR assay” is described in the publication Klein et al. J. Biol. Chem. 1996, 271, 22692-22696, which is expressly incorporated herein by reference, and a detailed description is also provided below. The results of the PGR assay are also expressed in EC50 numbers (nanomolar concentration).
RAR-P-GR holoreceptor Transactivation Assay
CV-1 cells (4×10^5 cells/well) were transiently transfected with the luciferase reporter plasmid MTV-4(R5G)-Luc (0.7 μg/well) containing four copies of the R5G retinoid DNA response element along with the RXRα expression plasmid pRS-hRXRa (0.1 μg/well) and one of the RAR-P-GR expression plasmids (0.05 μg/well) in 12 well plates via calcium phosphate precipitation Chen et al. Mol. Cell. Biol. 1987, 7, 2745-2752 as described by Klein et al. J. Biol. Chem. 1996, 271, 22692, referenced above. The three different RAR-P-GR expression plasmids, pRS-RARα-P-GR, pcDNA3-RARβ-P-GR and pcDNA3-RARγ-P-GR, express RARα, RARβ and RARγ receptors, respectively, which contain modified DNA binding domains such that their “P-boxes” have been altered to that of the glucocorticoid receptor. These RAR-P-GR receptors bind to DNA as heterodimeric complexes with RXR. Specifically, the RAR-P-GR receptors bind retinoic acid response elements designated R5G, comprised of two RAR half sites (nucleotide sequence 5′-GGTTCA-3′) separated by 5 base pairs in which the 3′-half site has been modified to that of a glucocorticoid receptor half site, 5′-AGAACA-3′. To allow for various in transfection efficiency a β-galactosidase expression plasmid (0.01 μg/well) was used as an internal control. Alternatively, the assay was performed in a 96-well microtiter plate format (5000 cells/well) in a manner which was identical to that described above except ⅕ of the amount of the DNA-calcium phosphate precipitant (20 μl instead of 100 Al) was applied to each well. Eighteen hours after introduction of the DNA precipitants, cells were rinsed with phosphate buffered saline (PBS) and fed with D-MEM (Gibco-BRL) containing 10% activated charcoal extracted fetal bovine serum (Gemini Bio-Products). After rinsing with PBS cells were lysed with luciferase activity was measured as previously described in de Wet Mol. Cell. Biol. 1987, 7, 725-737. Luciferase values represent the mean±SEM of triplicate determinations normalized to β-galactosidase activity. The results of the PGR assay are also expressed in EC50 numbers (nanomolar concentration).
(In general: Reporter assays use an easily measured gene product as a stand-in for the process of interest.)

The target in another test is T1, RARβ (Homo sapiens, UniProt P10826).
T1 sequence (P10826 1-455): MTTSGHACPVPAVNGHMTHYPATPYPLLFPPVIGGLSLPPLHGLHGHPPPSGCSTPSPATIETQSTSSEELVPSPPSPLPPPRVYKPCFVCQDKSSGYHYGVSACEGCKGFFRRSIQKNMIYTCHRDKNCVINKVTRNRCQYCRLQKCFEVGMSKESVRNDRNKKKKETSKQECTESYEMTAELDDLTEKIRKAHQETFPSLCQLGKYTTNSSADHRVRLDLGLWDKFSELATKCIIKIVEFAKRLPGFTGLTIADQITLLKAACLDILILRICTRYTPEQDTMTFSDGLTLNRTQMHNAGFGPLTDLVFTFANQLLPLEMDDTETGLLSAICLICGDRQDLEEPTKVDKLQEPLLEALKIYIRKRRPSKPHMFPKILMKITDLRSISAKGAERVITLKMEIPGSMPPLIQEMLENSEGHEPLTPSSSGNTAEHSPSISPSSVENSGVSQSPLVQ
The experiment in a line: Ligand binding assay, RARβ. The following applies: read-out: Kd RABβ.
From the text: as §1

Test [2] addresses T2, RARα (Homo sapiens, UniProt P10276).
T2 sequence (P10276 1-462): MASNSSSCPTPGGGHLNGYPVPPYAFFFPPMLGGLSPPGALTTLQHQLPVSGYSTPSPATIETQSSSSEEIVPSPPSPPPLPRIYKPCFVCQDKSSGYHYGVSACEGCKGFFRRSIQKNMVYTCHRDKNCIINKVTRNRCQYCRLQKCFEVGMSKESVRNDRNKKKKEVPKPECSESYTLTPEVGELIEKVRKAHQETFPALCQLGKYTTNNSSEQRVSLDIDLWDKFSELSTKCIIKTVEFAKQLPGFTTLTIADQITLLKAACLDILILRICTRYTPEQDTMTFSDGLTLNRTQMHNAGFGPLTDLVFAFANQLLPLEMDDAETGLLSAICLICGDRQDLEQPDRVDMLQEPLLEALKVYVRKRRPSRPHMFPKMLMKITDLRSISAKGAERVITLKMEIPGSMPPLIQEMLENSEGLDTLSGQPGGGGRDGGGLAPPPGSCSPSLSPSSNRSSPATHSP
Nature of the test: Ligand binding assay, RARα.
From the text: as §1

Another test addresses T3, RARγ (Homo sapiens, UniProt P13631).
T3 sequence (P13631 1-454): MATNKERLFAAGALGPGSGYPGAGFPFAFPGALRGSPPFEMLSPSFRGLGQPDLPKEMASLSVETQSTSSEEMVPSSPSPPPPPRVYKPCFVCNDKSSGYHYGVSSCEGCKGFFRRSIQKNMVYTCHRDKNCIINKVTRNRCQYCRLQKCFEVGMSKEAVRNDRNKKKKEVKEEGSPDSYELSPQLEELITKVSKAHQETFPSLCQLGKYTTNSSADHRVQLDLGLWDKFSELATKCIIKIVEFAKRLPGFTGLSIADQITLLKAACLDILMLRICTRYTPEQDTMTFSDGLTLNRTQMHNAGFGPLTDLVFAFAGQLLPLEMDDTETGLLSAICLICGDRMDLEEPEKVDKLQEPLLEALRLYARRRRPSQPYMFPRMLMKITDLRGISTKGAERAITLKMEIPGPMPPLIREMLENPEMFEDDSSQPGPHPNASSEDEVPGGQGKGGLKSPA
Nature of the test: Ligand binding assay, RARγ.
From the text: as §1

[3] abbreviates: efficiency relative to all-trans-retinoic acid, PGR assay.

Chain of RARα (Homo sapiens, UniProt P10276, E106G/G107S/G110V) (P10276 whole entry E106G/G107S/G110V): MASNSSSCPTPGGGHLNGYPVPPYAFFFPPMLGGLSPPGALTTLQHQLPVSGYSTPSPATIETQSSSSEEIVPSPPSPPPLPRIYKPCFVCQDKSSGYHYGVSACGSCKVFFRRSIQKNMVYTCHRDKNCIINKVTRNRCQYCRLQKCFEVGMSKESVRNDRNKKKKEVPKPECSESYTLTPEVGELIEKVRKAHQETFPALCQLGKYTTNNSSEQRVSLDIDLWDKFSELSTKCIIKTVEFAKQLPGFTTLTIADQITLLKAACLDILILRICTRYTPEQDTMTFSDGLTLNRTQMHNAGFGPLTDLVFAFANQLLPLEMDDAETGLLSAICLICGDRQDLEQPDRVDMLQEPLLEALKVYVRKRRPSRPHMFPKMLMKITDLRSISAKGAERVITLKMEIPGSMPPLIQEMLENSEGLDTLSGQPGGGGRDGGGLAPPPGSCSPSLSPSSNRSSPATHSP
Chain of RARα (Homo sapiens, UniProt P10276, E106G/G107S/G110V) (P19793 whole entry, further chain): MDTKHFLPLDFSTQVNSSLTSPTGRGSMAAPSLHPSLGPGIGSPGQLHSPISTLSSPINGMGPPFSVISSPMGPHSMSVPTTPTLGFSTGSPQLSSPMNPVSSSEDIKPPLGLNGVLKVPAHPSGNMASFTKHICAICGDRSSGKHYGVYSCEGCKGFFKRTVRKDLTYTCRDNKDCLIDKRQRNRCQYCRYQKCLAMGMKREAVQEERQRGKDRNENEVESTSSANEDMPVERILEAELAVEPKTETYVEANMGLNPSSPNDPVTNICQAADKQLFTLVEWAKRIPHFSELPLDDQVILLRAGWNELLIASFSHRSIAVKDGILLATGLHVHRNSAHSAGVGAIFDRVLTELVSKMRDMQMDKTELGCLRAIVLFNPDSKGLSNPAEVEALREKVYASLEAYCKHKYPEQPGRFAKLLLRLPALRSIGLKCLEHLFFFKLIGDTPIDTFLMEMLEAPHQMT

`CC(C)(C)c1ccc(C(=O)Nc2ccc(C(=O)O)c(F)c2)cc1Oc1ccc(C(F)(F)F)cc1` [Compound 13, 4-[[4′-tert-Butyl-3′-(4″-trifluoromethyl)phenoxy]benzoylamino]-2-fluorobenzoic Acid] returned an Emax at RARα [1] (setting [3]) of 0%. The EC50 on RARα [1] is greater than 10000 nM. Also, the Kd amounted to 4570 nM at RARβ, 11 nM on RARα [2] and 5690 nM on RARγ.

In turn, `COC(=O)c1ccc(Oc2cc(C#Cc3ccc(C(=O)O)c(F)c3)ccc2C(C)(C)C)cc1` [Compound 10, 4-[[4′-tert-Butyl-3′-(4″-carbomethoxy)phenoxy]phenylethynyl]-2-fluorobenzoic Acid] had an Emax on RARα [1] (setting [3]) of 0%. Further, the EC50 at RARα [1] was greater than 10000 nM. Also, the figures for the Kd at RARβ, at RARα [2] and on RARγ were 14 nM, 15 nM and 66 nM, respectively.

`CC(C)(C)c1ccc(C#Cc2ccc(C(=O)O)c(F)c2)cc1Oc1ccc([N+](=O)[O-])cc1` [Compound 11, 4-[[4′-tert-Butyl-3′-(4″-nitro)phenoxy]phenylethynyl]-2-fluoro-benzoic Acid] showed an Emax at RARα [1] (setting [3]) of 0%. The compound further yielded an EC50 at RARα [1] greater than 10000 nM. The Kd came to 34 nM on RARβ, 24 nM at RARα [2] and 112 nM on RARγ.

For the compound `CC(C)(C)c1ccc(C#Cc2ccc(C(=O)O)cn2)cc1Oc1ccc(C(F)(F)F)cc1` [Compound 6, 6-[[4′-tert-Butyl-3′-(4″-trifluomethyl)phenoxy]phenylethynyl]-3-nicotinic Acid], the EC50 at RARα [1] was greater than 10000 nM. At RARα [1] (setting [3]), the “% Efficiency RARα” value is given as 0%. The figures for the Kd at RARβ, on RARα [2] and at RARγ were 113 nM, 1050 nM and 317 nM, respectively.

Broadly, the Emax is the greatest response seen or fitted, relative to the assay's reference. What is called EC50 is the concentration needed to bring the measured effect to its halfway point. A low value points to higher potency in that assay. For orientation: Kd means a measure of binding affinity in units of concentration.
